Experiments:
mouse sepsis model = experiment: Mouse sepsis model (LPS), Q-PCR of inflammatory factors; type: in vivo, C57BL/6 mice; design: key: relative mRNA by 2^−ΔΔCt, normalized to Gapdh; conditions: 12 μmol/kg i.g.
Source text: The mice were randomly divided into 8 groups, one of which was randomly selected as the normal group, and the other 7 groups were the model group, the parent drug 1 (0.4 and 4 μmol/kg), the hydrochloride 22 (4 μmol/kg), the fumarate 23 (0.4 and 4 μmol/kg) and dexamethasone (Dex, 12 μmol/kg) groups, respectively, with 6 mice in each group. 5 days before model establishment, the parent drug 1 (0.4 and 4 μmol/kg), the hydrochloride 22 (4 μmol/kg), the fumarate 23 (0.4 and 4 μmol/kg) and Dex (12 μmol/kg) were administered intragastrically. The mice in the normal group and model group were administered intragastrically the same volume of the solvent 0.5% CMC-Na. LPS (10 mg/kg) was injected intraperitoneally 1 hour after administration on the last day to establish a mouse sepsis model.
At 6 h after intraperitoneal injection of LPS, the mice were sacrificed by cervical dislocation, and the abdominal cavity was opened. The lungs, livers and kidneys were taken out, and rinsed twice with pre-cooled PBS. The lung tissues, liver left lobe tissues and kidney tissues of the mice were cut, and fixed with 4% paraformaldehyde for 24-48 h. The remaining tissues were frozen at −70° Cfor subsequent use.
20 mg of kidney, lung and liver tissues were accurately weighed, rinsed with pre-cooled PBS solution, cut into small pieces by ophthalmic surgical scissors, and put into a glass homogenizer, into which was added 1 mL Trizol reagent for grinding to prepare tissue homogenate. Subsequently, the homogenate was transferred into a 1.5 mL EP tube without RNase and lysed on ice for 10 min. 200 μL chloroform was added, and the mixture was shaken violently, stood on ice for 3-5 min, and centrifuged at 12000 rpm and 4° C. for 15 min. The supernatant was aspirated carefully into a new 1.5 mL EP tube without RNase, into which was added the same volume of pre-cooled isopropanol, stood on an ice bath for 30 min, centrifuged at 12000 rpm and 4° C. for 10 min, and the supernatant was discarded. 75% ethanol-DEPC solution was added to wash the precipitate, and the total RNA was obtained by inversion and air drying on flat paper. Subsequently, 10 μL of DEPC treated water was added for dissolution. 1 μL of the total RNA solution was taken, and diluted to 100 times, the OD values of which at 260 nm and 280 nm were measured with a full wavelength microplate reader. If the ratio of OD260/OD280 is between 1.8 and 2.0, it is said that the extracted RNA has a high purity, i.e., it can be used in subsequent experiments.
Subsequent experiments were carried out with 20 μL of a reverse transcription reaction system according to the method described in the kit instructions:
Subsequent experiments were carried out with 20 μL of a reaction system according to the method described in the kit instructions:
The above reagents were added into a micro-reaction tube, sealed with a sealing membrane, and placed in a Q-PCR instrument. The parameters were set according to the following reaction conditions to carry out the amplification experiment. The reaction conditions were as follows:
The threshold cycle (Ct) value of each group was recorded. Calculating and analyzing were carried out by the 2^−ΔΔCt method (the expression level of the control gene Gapdh was set to 1 to correct the expression level of the target gene).

[1] = system: mouse acute lung injury model; experiment: Mouse acute lung injury model (LPS), ELISA; type: in vivo, C57BL/6 mice; conditions: title: serum (text b290: lung tissues), 12 μmol/kg
Experimental: In addition to the normal group injected intragastrically with PBS, other mice were injected intraperitoneally with LPS (7.5 mg/kg) to establish acute lung injury models. Three days before model establishment, the parent drug 1 (0.4 and 4 μmol/kg), the hydrochloride 22 (0.4 and 4 μmol/kg), the fumarate 23 (0.4 and 4 μmol/kg) and the positive drug Dex (12 μmol/kg) were administered intragastrically in advance, and LPS (7.5 mg/kg) was injected intraperitoneally half an hour after administration on the third day.
abdominal cavity was opened. The lungs were taken out, and rinsed twice with pre-cooled PBS. […] The remaining tissues were frozen at −70° C. for subsequent use.
20 mg of lung tissues were accurately weighed, rinsed with pre-cooled PBS solution, cut into small pieces by ophthalmic surgical scissors, and put into a glass homogenizer, into which was added 180 μL PBS (containing 1 mM PMSF). The mixture was homogenized at 60 HZ for 180 s, and centrifuged at 3000 rpm/min at 4° C. for 20 min. 1 μL supernatant was taken, the protein concentration of which was measured with Nanodrop and leveled, and could be used for subsequent experiments.

[2] = system: acute gouty arthritis model rats induced by MSU; experiment: Rat acute gouty arthritis model induced by MSU; type: in vivo, SD rats
Experimental: During the adaptive feeding period, 2% pentobarbital sodium was used to anesthetize the rats by intraperitoneal injection at a dose of 0.25 mL/100 g. The circumferences of the ankle joints of the parent left hind limbs of the rats were measured. After the adaptive feeding, 2% pentobarbital sodium was used for intraperitoneal injection anesthesia at a dose of 0.25 mL/100 g. After the anesthesia, 8 rats were randomly selected as the blank group, and normal saline was injected into the joint cavity of their left hind limbs. The other rats were injected with 200 μL sodium urate into the joint cavity of the left hind limbs. 6 h after the model establishment, the rats were anesthetized with pentobarbital sodium, and the joint circumference was measured with a 2 mm wide paper strip. According to the joint swelling ratio, the rats were divided into seven groups.
Administration was carried out once at 10.5 h and 22.5 h after the model establishment, respectively.
Joint swelling is one of the main characteristics of acute gouty arthritis model rats induced by MSU. Before the model establishment, and at 6 h, 12 h and 24 h after the model establishment, the circumferences of the ankle joints of the left hind limbs were measured respectively, and the joint swelling ratios were calculated. The circumferences at 0.5 mm below the ankle joints of the left hind feet of rats in each group were measured with a 2 mm wide paper strip and a ruler, the measurement was repeated twice, and the average value was taken to calculate the joint swelling ratio.
Joint swelling ratio=(joint circumference at test time point−initial joint circumference)/initial joint circumference

[3] = Table 12, title 'in lung' (text b281: liver)

## C[C@@H]1C[C@H]2[C@@H]3CCC4=CC(=O)C=C[C@]4(C)[C@@]3(F)[C@@H](O)C[C@]2(C)[C@@]1(O)C(=O)CO [Dex, dexamethasone, reference compound]
Mouse sepsis model; [3]
  Il1 mRNA expression: 7.54 ± 0.70
  Il6 mRNA expression: 4.27 ± 1.33
  Tnf mRNA expression: 7.04 ± 0.77
Mouse sepsis model; kidney
  Il1 mRNA expression: 6.05 ± 1.03
  Il6 mRNA expression: 5.76 ± 0.72
  Tnf mRNA expression: 6.62 ± 0.68
Mouse sepsis model; lung
  Il1 mRNA expression: 7.20 ± 0.36
  Il6 mRNA expression: 9.88 ± 0.80
  Tnf mRNA expression: 8.99 ± 0.76
[1]
  IL-1β: 1873.00 ± 86.52 pg/mL
  IL-6: 1423.00 ± 168.40 pg/mL

## COc1cc2c(c(OC)c1OC)-c1ccc(OC)c(=O)cc1[C@@H](NC(C)=O)CC2 [colchicine]
[2]; 6 h after model establishment (before dosing), 0.5 mg/kg i.g.
  joint swelling ratio: 16.15 ± 1.37
[2]; 12 h after model establishment, 0.5 mg/kg i.g.
  joint swelling ratio: 29.10 ± 3.17
[2]; 24 h after model establishment, 0.5 mg/kg i.g.
  joint swelling ratio: 23.28 ± 2.14

## C[C@]12C=CC(=O)C=C1CC[C@@H]1[C@@H]2[C@@H](O)C[C@@]2(C)[C@H]1CC[C@]2(O)C(=O)CO [prednisolone]
[2]; 6 h after model establishment (before dosing), 3.125 mg/kg i.g.
  joint swelling ratio: 15.78 ± 1.22
[2]; 12 h after model establishment, 3.125 mg/kg i.g.
  joint swelling ratio: 25.43 ± 2.03
[2]; 24 h after model establishment, 3.125 mg/kg i.g.
  joint swelling ratio: 18.48 ± 1.66

From US20240124409A1, “GUAIANOLIDE SESQUITERPENE LACTONE DERIVATIVES AND PHARMACEUTICAL USE THEREOF” (NANJING UNIVERSITY OF CHINESE MEDICINE, priority 2021, published 2024)
